Experiments:
[1] = test system: O=P(O)(O)O[C@H]1C=C(CO)[C@@H](O)[C@H](O)[C@H]1O; assay: purified protein; conditions: GTP 1 mM, MgCl2 1 mM, Tris-HCl pH 7.5, 30 °C, AcbR 1.0 µM
[2] = test system: O=P(O)(O)OCC1=C[C@H](OP(=O)(O)O)[C@H](O)[C@@H](O)[C@@H]1O; assay: purified protein; conditions: Tris-HCl 20 mM pH 7.5, 30 °C, AcbJ 1.0 µM
AcbU = target: T1, AcbU (Actinoplanes sp. SE50/110, UniProt Q27GS3); assay: PK/LDH coupled assay, A340; LC-MS of product; assay type: biochemical; conditions: ATP […], MgCl2 […], Tris-HCl pH […] °C; substrate […]
T1 construct: recombinant from pRSET-B in E. coli BL21(DE3)/pLysS, Ni-NTA purified
T1 sequence (Q27GS3 1-492): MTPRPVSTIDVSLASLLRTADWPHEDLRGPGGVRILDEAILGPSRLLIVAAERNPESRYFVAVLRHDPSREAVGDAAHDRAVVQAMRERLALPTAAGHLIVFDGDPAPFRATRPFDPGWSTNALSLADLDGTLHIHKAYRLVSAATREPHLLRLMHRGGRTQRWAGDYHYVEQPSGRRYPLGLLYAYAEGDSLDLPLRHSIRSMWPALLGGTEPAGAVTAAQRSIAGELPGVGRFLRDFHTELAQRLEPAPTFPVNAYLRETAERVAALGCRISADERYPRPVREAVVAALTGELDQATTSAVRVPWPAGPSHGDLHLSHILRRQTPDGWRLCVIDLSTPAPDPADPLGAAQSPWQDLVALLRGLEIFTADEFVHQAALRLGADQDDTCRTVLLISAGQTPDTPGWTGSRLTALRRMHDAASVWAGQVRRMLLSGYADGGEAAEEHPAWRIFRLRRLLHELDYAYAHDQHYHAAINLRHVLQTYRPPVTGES

AcbK = target: T2, AcbK (Actinoplanes sp. SE50/110, UniProt Q8RMD4); assay: preparative phosphorylation, conversion by PK/LDH assay; assay type: biochemical; conditions: ATP 6 mM, MgCl2 5 mM, Tris-HCl pH 7.5, 30 °C, 6 h
T2 construct: recombinant from pET28b in E. coli BL21(DE3)/pLysS, Ni-NTA purified
T2 sequence (Q8RMD4 whole entry): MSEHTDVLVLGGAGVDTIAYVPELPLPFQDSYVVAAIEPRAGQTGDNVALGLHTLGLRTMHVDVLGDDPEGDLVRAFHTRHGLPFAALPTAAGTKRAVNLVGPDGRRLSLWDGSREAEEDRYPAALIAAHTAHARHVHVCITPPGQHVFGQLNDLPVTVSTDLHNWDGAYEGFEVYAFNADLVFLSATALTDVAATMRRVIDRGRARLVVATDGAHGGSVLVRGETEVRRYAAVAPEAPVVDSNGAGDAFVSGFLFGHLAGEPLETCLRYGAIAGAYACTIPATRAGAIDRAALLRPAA

AcbS = target: T3, AcbS (Actinoplanes sp. SE50/110, UniProt Q27GS2); assay: LC-QTOF/MS and MS/MS of product acarbose; assay type: biochemical; conditions: GDP-V generated in situ by AcbR from V1P and GTP; 4-aminoDGG […], MgCl2 […], pH […] °C, […] h
T3 construct: recombinant from pRSET-B in E. coli BL21(DE3)/pLysS, Ni-NTA purified
T3 sequence (Q27GS2 1-709): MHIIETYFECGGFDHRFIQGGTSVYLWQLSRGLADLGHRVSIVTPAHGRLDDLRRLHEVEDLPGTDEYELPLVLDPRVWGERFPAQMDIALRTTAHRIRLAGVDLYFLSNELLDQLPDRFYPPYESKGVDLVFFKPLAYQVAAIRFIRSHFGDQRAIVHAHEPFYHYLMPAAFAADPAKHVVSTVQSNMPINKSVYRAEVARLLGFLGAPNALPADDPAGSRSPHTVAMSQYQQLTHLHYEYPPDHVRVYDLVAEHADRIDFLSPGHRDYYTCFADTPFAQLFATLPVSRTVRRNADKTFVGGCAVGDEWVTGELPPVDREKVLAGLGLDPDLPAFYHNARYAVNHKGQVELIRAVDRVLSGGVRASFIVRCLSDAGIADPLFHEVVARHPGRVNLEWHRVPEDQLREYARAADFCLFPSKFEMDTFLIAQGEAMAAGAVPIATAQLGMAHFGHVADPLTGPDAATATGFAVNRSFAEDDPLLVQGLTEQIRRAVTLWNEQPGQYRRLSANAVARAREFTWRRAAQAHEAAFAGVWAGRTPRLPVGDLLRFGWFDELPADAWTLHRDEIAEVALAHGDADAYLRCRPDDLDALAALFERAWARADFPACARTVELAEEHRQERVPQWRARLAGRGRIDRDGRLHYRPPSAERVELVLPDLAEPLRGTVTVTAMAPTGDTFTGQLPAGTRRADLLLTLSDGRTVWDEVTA

ValC = target: T4, ValC (Streptomyces hygroscopicus, UniProt Q3T6E2); assay: preparative phosphorylation, conversion by PK/LDH assay; assay type: biochemical; conditions: ATP 6 mM, MgCl2 5 mM, Tris-HCl pH 7.5, 30 °C, 6 h
T4 construct: recombinant from pRSETB-valC in E. coli BL21(DE3)/pLysS, Ni-NTA purified
T4 sequence (Q3T6E2 1-351): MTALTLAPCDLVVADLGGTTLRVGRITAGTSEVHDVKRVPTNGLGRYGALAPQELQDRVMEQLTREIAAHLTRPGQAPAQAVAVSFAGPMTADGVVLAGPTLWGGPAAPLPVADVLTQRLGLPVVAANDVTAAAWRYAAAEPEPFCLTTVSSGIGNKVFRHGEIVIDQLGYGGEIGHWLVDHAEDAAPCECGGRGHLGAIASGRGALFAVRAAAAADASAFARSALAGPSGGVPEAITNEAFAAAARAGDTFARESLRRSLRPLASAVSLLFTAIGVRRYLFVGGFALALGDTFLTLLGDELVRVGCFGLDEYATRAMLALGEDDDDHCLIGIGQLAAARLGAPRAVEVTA

**Q.** For AcbR (Actinoplanes sp. SE50/110), which Km [1] is on record?
**A.** Its Km is 412 ± 83 µM.

**Q.** And the kcat [1]?
**A.** Its kcat is 0.233 ± 0.017 s⁻¹.

**Q.** What does the source list for AcbJ (Actinoplanes sp. SE50/110)?
**A.** Km [2]: 817 ± 168 µM; kcat [2]: 0.367 ± 0.067 s⁻¹

**Q.** `O=P(O)(O)OCC1=C[C@H](O)[C@H](O)[C@@H](O)[C@@H]1O` [compound 12, V7P] was tested. Which “PK/LDH coupled assay, A340; LC-MS of product” value (AcbU) did it give?
**A.** The value was “V7P is a preferred substrate for AcbU to produce V1,7PP”.

**Q.** With `C[C@H]1O[C@H](O[C@H]2[C@H](O)[C@@H](O)[C@@H](O[C@H]3[C@H](O)[C@@H](O)C(O)O[C@@H]3CO)O[C@@H]2CO)[C@H](O)[C@@H](O)[C@@H]1N[C@H]1C=C(CO)[C@@H](O)[C@H](O)[C@H]1O` (stereo partly drawn) [compound 1, acarbose] as the molecule, how does the “preparative phosphorylation, conversion by PK/LDH assay” value (AcbK) read?
**A.** Its value is “prepared enzymatically from acarbose and ATP using the acarbose kinase AcbK”.

**Q.** `Nc1nc2c(ncn2[C@@H]2O[C@H](COP(=O)(O)OP(=O)(O)O[C@H]3C=C(CO)[C@@H](O)[C@H](O)[C@H]3O)[C@@H](O)[C@H]2O)c(=O)[nH]1` [compound 16, GDP-V] was tested. Which “LC-QTOF/MS and MS/MS of product acarbose” value (AcbS) did it give?
**A.** Its value is “incubation of recombinant AcbS with GDP-V (generated in situ”.

**Q.** For `OCC1=C[C@H](O)[C@H](O)[C@@H](O)[C@@H]1O` [V], which “PK/LDH coupled assay, A340; LC-MS of product” value (AcbU) is on record?
**A.** Its value is “AcbU can also phosphorylate valienol (V)”.

**Q.** And the “preparative phosphorylation, conversion by PK/LDH assay” value (ValC)?
**A.** Its value is “phosphorylation of synthetically prepared valienol using the cyclitol kinase ValC”.
